Laboratory results: patent US11603387B2, “SOCS mimetics for the treatment of diseases” (UNIVERSITY OF FLORIDA RESEARCH FOUNDATION, INC., priority 2014, dated 2023)

Tests used:
SOCS1 = SOCS1 expression (qPCR, relative to GAPDH) in healthy control PBMCs treated in vitro; assay type: cell-based, human; settings: chloroquine diphosphate salt for 12 and 24 h
Description: FIGS. 9A and 9B. SOCS1 expression is not affected by chloroquine treatment, but is increased by dexamethasone treatment. (FIG. 9A) PBMCs, taken from healthy controls, were treated with (FIG. 9A) chloroquine diphosphate salt at the indicated molar concentrations for 12 and 24 h or (FIG. 9B) dexamethasone at the indicated molar concentrations for 3, 6, 12, or 24 h. Post treatment, SOCS1 expression, relative to GAPDH, was assessed via qPCR. Results shown as mean±s.e.m. The Kruskal-Wallis test followed by the Dunn's Multiple Comparison Test was chosen to assess statistical significance. (*P<0.05).
PBMCs were purified from heparinized blood by Ficoll-Paque gradient centrifugation. Briefly, whole blood was diluted with PBS (1:1) and gently layered on the Ficoll (Lymphocyte Separation Medium; Cellgro, Manassas, Va.). […]
Using the Promega RNA extraction protocol, total RNA was extracted from human PBMCs ex vivo or from mouse CD4^+CD25^− cells after being cultured under control (anti-CD3 and anti-CD28) or Th17 inducing conditions in the presence or absence of SOCS1-KIR peptide. cDNA synthesis and qPCR were performed as described in (Collins et al. 2011), with modifications. […] The amplification reactions took place in a PTC-200 Peltier Thermal Cycler with a CHROMO 4 Continuous Fluorescence Detector (BioRad). […] The fold change in expression was calculated using the ΔΔCT method.

SLE patients = assay: Subgroup analysis of SLE patients with and without prednisone treatment (PBMC western blot, RT-PCR); assay type: in vivo, human; settings: SLE patients receiving vs not receiving prednisone
From the text: FIGS. 20A-20F. […] Results shown are mean±SE; *represents significant Pearson correlation; ^ represents a t-test with significant mean difference. Correlation was considered significant at 0.05 level (2 tailed).
The UF Institutional scientific research and review board (IRB) on human subjects approved the study protocol. Written informed consent were obtained from all patients and controls in the study. In all, 34 SLE patients and 11 healthy controls were enrolled in the present study (Table 5). All SLE patients fulfilled the 1982 American College of Rheumatology (ACR) revised criteria for SLE (Tan et al. 1982). The patient's age ranged from 22 to 73 years while the health controls age ranged from 27 to 55 years. Healthy controls (N=11) were recruited from the outpatient clinics at the participating institutions. All patients underwent baseline investigations as per clinical requirements. Disease activity was assessed by the SLE disease activity index (SLEDAI) (Bombardier et al. 1992).
PBMCs were purified from heparinized blood by Ficoll-Hypaque gradient centrifugation. Briefly, whole blood was diluted with PBS (1:1) and gently layered on Ficoll (Lymphocyte Separation Medium; Cellgro, Manassas, Va.). Cells were centrifuged continuously at 400×g for 20 minutes. PBMCs were collected from the interface layer and washed 3 times with PBS. After isolation, PBMCs were lysed with RNA lysis buffer (Promega) and stored at −80° C. until RNA extraction and qPCR protocols were performed.
RT-PCR was performed to determine the transcript levels of SOCS1, SOCS3 and STAT1 genes in PBMCs, relative to GAPDH. In brief, cDNA synthesis was performed using the iQ cDNA synthesis kit (Bio-Rad; Hercules, Calif.). The qPCR was subsequently performed using the iQ SYBR Green Super mix (Bio-Rad) and gene-specific primers for SOCS1, SOCS3, IFN-G and IL-27. The real time RT-PCR reaction was performed on CFX Connect™-Real time system. The PCR for the target gene and GAPDH was duplicated twice for each sample and the results were corrected for GAPDH expression as an internal control. Further the data was analyzed using CFX Manager™ software version 3.0 (Bio-Rad technologies, Inc.).
Frozen PMBC cell pellets were thawed and lysed in RIPA lysis buffer (Santa Cruz Technologies, Inc.) followed by protein estimation through BSA 2.0 mg/ml standard curve preparation with Pierce protein assay reagents (Thermo Scientific Product #23209). Equal quantities of proteins were loaded and separated in 4%-12% SDS PAGE gel (Bio-rad) and separated proteins were transferred to nitrocellulose membrane (Bio-Rad Laboratories, Hercules, Calif.). The membranes were then blocked and incubated with polyclonal anti-rabbit antibodies specific to the KIR regions of SOCS1 and SOCS3 (a kind gift from Dr. Howard Johnson Labs, UF), anti-pSTAT1; anti-pERK1/2; anti-pAKT and for total STAT1; ERK1/2 and AKT respectively (Cell signaling). Further probed with appropriate secondary antibodies conjugated to HRP, and visualized with the ECL detection system according to the manufacturer's instruction (Pierce; Thermo Scientifics) The GAPDH was used as a loading control. The results were calculated as densitometry arbitrary units using the J image online software.

JAK2 = JAK2 (Homo sapiens, UniProt O60674); assay: Binding to the activation loop of JAK2; settings: dimer compared with monomer
Sequence of JAK2 (O60674 whole entry, species assumed): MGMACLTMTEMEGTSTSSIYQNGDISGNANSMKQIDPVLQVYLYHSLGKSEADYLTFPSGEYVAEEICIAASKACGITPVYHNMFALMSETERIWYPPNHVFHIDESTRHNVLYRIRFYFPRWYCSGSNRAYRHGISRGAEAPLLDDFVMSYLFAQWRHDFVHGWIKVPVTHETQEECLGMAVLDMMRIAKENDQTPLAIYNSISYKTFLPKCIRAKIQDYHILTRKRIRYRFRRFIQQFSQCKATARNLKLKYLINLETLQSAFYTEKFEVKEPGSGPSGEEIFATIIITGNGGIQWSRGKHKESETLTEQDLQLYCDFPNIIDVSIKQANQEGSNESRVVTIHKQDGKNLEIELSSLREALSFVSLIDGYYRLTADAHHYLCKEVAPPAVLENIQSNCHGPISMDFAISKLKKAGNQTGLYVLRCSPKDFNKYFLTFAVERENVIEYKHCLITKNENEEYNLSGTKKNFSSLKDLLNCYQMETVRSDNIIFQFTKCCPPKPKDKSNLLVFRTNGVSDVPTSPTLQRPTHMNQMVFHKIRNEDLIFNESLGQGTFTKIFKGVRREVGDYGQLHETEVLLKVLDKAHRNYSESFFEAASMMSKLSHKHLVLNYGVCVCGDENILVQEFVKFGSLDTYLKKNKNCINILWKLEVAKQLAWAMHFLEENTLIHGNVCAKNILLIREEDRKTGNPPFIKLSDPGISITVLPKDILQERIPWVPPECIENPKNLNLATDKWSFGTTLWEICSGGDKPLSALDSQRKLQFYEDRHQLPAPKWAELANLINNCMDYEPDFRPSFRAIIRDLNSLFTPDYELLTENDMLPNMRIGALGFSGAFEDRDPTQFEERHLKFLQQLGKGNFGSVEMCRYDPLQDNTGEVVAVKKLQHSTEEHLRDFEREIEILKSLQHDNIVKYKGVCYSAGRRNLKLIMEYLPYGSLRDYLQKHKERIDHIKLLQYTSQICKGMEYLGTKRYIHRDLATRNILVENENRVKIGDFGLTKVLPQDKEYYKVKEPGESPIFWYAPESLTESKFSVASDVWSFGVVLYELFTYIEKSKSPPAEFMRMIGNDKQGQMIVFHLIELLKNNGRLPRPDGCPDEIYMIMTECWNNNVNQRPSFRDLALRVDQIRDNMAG

Anti-cellular activity = assay type: cell-based; settings: dimer compared with monomer
[1] = tested on: CD4+CD25− T cells from C56BL/6 mice; assay: Th17 induction (iTh17) and activation of CD4+CD25− T cells, SOCS1 monomer vs dimer; assay type: cell-based, mouse; settings: Th17 inducing conditions, peptide 20 μM, 5 days
Description: FIG. 11. […] CD4+CD25− T cells from B6 mice were in the presence of Th17 inducing conditions in the presence of SOCS1 monomer or dimer for 5 days. Cells were re-stimulated with PMA, ionomycin, and brefeldin, followed by staining with anti-CD4, anti-IL17, and anti-CD25 antibodies.
Induction of Th17 cells, iTh17, and the effect of treatment on induction is illustrated in FIG. 11. CD4^+CD25^− T cells from C56BL/6 mice were incubated for 5 days at 37° C. under 1) control conditions (anti-CD3 (10 μg/ml), anti-CD28 (1.5 μg/ml)); 2) Th17 inducing conditions (anti-CD3, anti-CD28, IL-6 (20 ng/ml), TGF-β (5 ng/ml)); 3) Th17 inducing conditions with SOCS1 monomer (20 μM), or Th17 inducing conditions with SOCS1 dimer (20 μM). Following a 5-day incubation, cells were re-stimulated with phorbol myristic acetate (PMA) (50 ng/ml), ionomycin (1 μM), and brefeldin A (10 μg/ml). To assess Th17 differentiation, cells were stained with anti-CD4 and anti-IL-17A antibodies. To assess activation, cells were stained with anti-CD4 and anti-CD25 antibodies.

Molecule: CCN(CC)CCCC(C)Nc1ccnc2cc(Cl)ccc12 (stereo not shown) [chloroquine]
- SOCS1 expression (SOCS1): not affected

Molecule: C[C@]12C=CC(=O)C=C1CC[C@@H]1[C@@H]2C(=O)C[C@@]2(C)[C@H]1CC[C@]2(O)C(=O)CO [prednisone]
- SOCS 1/3 message expression (SLE patients): no effect
- SOCS3 protein levels (SLE patients): no effect
- STAT1 phosphorylation (SLE patients): no effect
- SOCS1 protein levels (SLE patients; significant in inactive SLEDIA (n=9, p<0.001)): consistently had higher SOCS1 protein levels
- pErk1/2 activation (SLE patients; significant in inactive SLEDIA patients): higher levels of pErk1/2 activation

Molecule: DTHFRTFRSHSDYRRIGGGGGGDTHFRTFRSHSDYRRI (SOCS1-KIR dimer peptide) [SOCS1-KIR mimetic as a dimer with a six glycine (G) linker]
- Avidity for the activation loop of JAK2 (JAK2): significantly increased the avidity
- Anti-cellular activity (Anti-cellular activity): increased anti-cellular activity
- Inhibition of CD4+ T cell activation (CD25 staining) [1]: More Effective than SOCS1 Monomer
- Inhibition of iTh17 induction (IL-17A staining) [1]: greater inhibitory effects on iTh17 than did the monomer
